Bounds are passed on as bounds.

In turn, `Cc1cc2c(cc1O)C(C)(C)CC1(CC(C)(C)c3cc(OCCCC(=O)O)c(C)cc3O1)O2` (centres undefined) showed a melting point of 173 to 174 °C.
`CCC(CC)c1ccc(Cl)c2nc3n(c12)CCN3C(=O)c1c(C)cc(C)cc1C` showed a melting point of 234 to 236 °C.
Under `CC(C)(C)OC(=O)N1CCC(c2n[nH]c(-c3ccccn3)n2)CC1` stands 220 °C; under `NS(=O)(=O)N1CCN(c2ccc(Cl)cc2)CC1`, 218 to 220 °C; under `CC1=CC2(C=C3CCC4C5CCC(=O)C5(C)CCC4C13C)OCCO2` (centres undefined), 159 °C.
Regarding `Fc1ccc(OC(CN2CCN(c3ccccc3)CC2)c2ccccc2)cc1` (centres undefined), the melting point lay in the range of 80 to 82 °C.
In the case of `Cn1c(=O)c(-c2c(Cl)cccc2Cl)cc2cnc(NC3CCCCC3)nc21`, the melting point is 242 to 244 °C.
Under `CC(C)(C)OC(=O)N1CCN(c2ccc3oc(C(N)=O)cc3c2)CC1` stands 198 to 200 °C.
In the case of `CCON1C(C)(C)CC(O)CC1(C)C` it was 86 to 88 °C.
`CCOC(=O)c1ccc(O)cc1SC` had a melting point of 132 to 136 °C.
In the case of `CCN(CC)C(=O)n1ccc(Sc2cccc(Cl)c2C)n1` it was 87 to 88 °C.
Under `O=C(Nc1ccc(Cl)cc1)Nc1ccc2[nH]c(C(F)(F)F)nc2c1` stands 264 to 268 °C; under `CCOC(=O)c1cnc2c(c1)C(=O)C=CC2=O`, 124 °C; under `COCc1cccc(CCC(O)c2ccccc2)c1NC(=O)CC1c2ccccc2Oc2ccccc21` (centres undefined), 144 to 146 °C.
Under `O=C(N[C@H]1CC[C@H](CCN2CCN(c3nccc4c3OCC4)CC2)CC1)c1ccc2c(c1)OCO2` stands 214 °C.
For `COc1ncc(Cl)c(C)c1Br`, the melting point fell in the range of 44 to 45 °C.
For `O=C1Cc2cc3c(cc2C(c2ccccc2)=NN1c1ccc([N+](=O)[O-])cc1)OCO3`, the melting point was > 200 °C.
Under `CC(C(=O)c1ccc(OCc2ccccc2)c(OCc2ccccc2)c1)N1CCC(n2c(=O)[nH]c3ccccc32)CC1` (centres undefined) stands 87 to 90 °C.
Under `Cc1ccc(F)cc1-c1noc(CCC#Cc2ccccn2)n1` stands 90 to 91 °C; under `CCOC(=O)c1ccc(/C=C/c2ccc3c(c2)C(C)(C)CC3(C)C)cc1`, 151 to 152 °C.
Under `CCCCCOc1ccc(-c2ccc(-c3nc(N)nc(N)n3)cc2)cc1` stands 246 to 249 °C; under `CSC(Nc1ccc2c(c1)OCO2)=C(C#N)C(=O)C(C)(C)C`, 139 to 141 °C; under `CCNc1cccc(NC(=O)COC)c1C#N`, 118 to 119 °C.
Take `CC(=CCOc1ccc(OC(C)(C)C(=O)O)cc1)c1ccc(-c2ccccc2)cc1`: the melting point was in the range of 148 to 150 °C.
Under `CSCc1cnc2ccccc2c1O` stands 196 to 197 °C.
Compound `COc1cc(O)c2c(=O)c(OC)c(-c3ccc(OC4OC(CO)C(O)C(O)C4O)c(OC)c3)oc2c1` (centres undefined) registered a melting point of 203 to 204 °C.
In the case of `CC#CC1(O)CCC2C3CCC4=CC(=O)CCC4C3C(=CF)CC21C` (centres undefined) it was 148 °C.
In the case of `COCc1c(C(=O)OC(C)C)ncc2[nH]c3cccc(Oc4ccc([N+](=O)[O-])cc4)c3c12` it was 217 to 219 °C; in that of `CCOC(=O)c1c(-c2ccc(F)cc2)cc(-c2ccccc2)n1C(C)C`, 97 to 100 °C; in that of `FC(F)(F)c1cccc(N(c2ccccc2)c2ccc(-c3ccc(N(c4ccccc4)c4cccc(C(F)(F)F)c4)cc3)cc2)c1`, 150 °C.
`COC(=O)c1ccc2cc(CCCc3cc4ccc(C(=O)OC)cc4o3)oc2c1` gave a melting point of 100 to 101 °C.
Compound `CC(CC(C)(C)O)Nc1ncc2cc(Oc3ccc(F)cc3F)c(=O)n(C)c2n1` (centres undefined) had a melting point of 159 to 161 °C.
In the case of `CCN(SN(C)C=Nc1ccc(C)cc1C)c1ccccc1` it was 52 to 53 °C; in that of `CS(=O)c1nc2cc(Oc3ccc(Cl)cc3Cl)c(Cl)cc2[nH]1` (centres undefined), 206 to 208 °C; in that of `CCN(CC)Cc1cc(O)ccc1O`, 114 °C.
In the case of `O=C(c1ccc(F)cc1F)N1CCc2cc(S(=O)(=O)N3CC(c4ccccc4)NC3=O)ccc21` (centres undefined) it was 128 °C.
Compound `Cc1nn(CC2CCCC2)c2nc(-c3ccncc3)nc(N)c12` yielded a melting point of 177 to 178 °C.
With `CN(C)C(=O)Cc1nn(-c2ccccc2)c(=O)c2[nH]c3ccc(F)cc3c12`, the melting point was in the range of 289 to 290 °C.
In the case of `CCN(CC)CCSc1nc2ccccc2c(=O)n1-c1ccccc1` it was 84.8 to 86.8 °C; in that of `CCOC(=O)CC(NC(=O)CNC(=O)c1csc(N=C2NCCN2)n1)c1cccnc1` (racemic), 198 to 199 °C; in that of `NC(=O)N(O)Cc1cccc(C(O)C#Cc2ccsc2)c1` (centres undefined), 151 °C.
Under `FC(F)(F)c1cccc2c(Cl)c3ccccc3c(Cl)c12` stands 142 to 143 °C; under `O=C(O)c1cccc([N+](=O)[O-])c1O`, 123 °C; under `COc1ccc(-c2nn(C(C)c3oc4ccccc4c(=O)c3-c3cccc(F)c3)c3ncnc(N)c23)cc1F` (centres undefined), 222 to 224 °C.
With `Cc1cc(COc2ccc(S(=O)(=O)NC[C@@H](C(=O)NO)N3CCN(Cc4ccc(F)cc4)CC3)cc2)c2ccccc2n1`, the melting point came to 180 °C.
`COc1cc(O)c(C(=O)C=Cc2ccc(O)c(OC)c2)c(OC)c1` returned a melting point of 177 °C.
Under `NC(=O)CN1Cc2ccccc2CCC1=O` stands 156 to 158 °C; under `CC1(C)Oc2ccc(C(F)(F)F)cc2C(n2ccccc2=O)=C1CN(O)C(=O)C(F)(F)F`, 208 °C.
Under `CCOC(=O)C(=O)C(C#N)c1ccc(Br)cc1` (centres undefined) stands 146 °C; under `CCC(CC)(CO)NC(N)=S`, 148 to 151 °C; under `COc1ccc([N+](=O)[O-])c(C=CN2CCCC2)c1Cl`, 89 to 92 °C.
In the case of `Nc1ccccc1NC(=O)c1ccc(COc2ccc3ncnc(Nc4cccc(Br)c4)c3c2)cc1` it was 215 to 218 °C; in that of `Cc1ccc(OS(=O)(=O)c2ccc(N3CCN(C)C3=O)cc2)cc1`, 155 to 157 °C; in that of `CCC(C)CNC1=NS(=O)(=O)c2sc(Cl)cc2N1` (centres undefined), 232 to 234 °C.
Compound `CC(=O)On1cc(-c2ccccc2)c(=O)c(-c2cccc(C(F)(F)F)c2)c1` gave a melting point of 232 to 235 °C.
Under `COc1ccc(CCCC(=O)O)c(Cl)c1Cl` stands 120 to 123 °C; under `c1ccc2c(c1)N=C(c1ccncc1)c1cccc3c1N2CC3`, 152 to 153 °C.
In the case of `CN(c1cccc(C(=O)O)c1)c1ccc(-c2ccc(C(=N)N)cc2)nn1` it was > 260 °C; in that of `Cn1cncc1COCC(O)c1ccc(OCc2ccccc2)cc1` (centres undefined), 148 to 150 °C; in that of `Nc1nc(-n2cc(C(=O)O)c(=O)c3cc(F)c(N4CC(O)C4)c(F)c32)c(F)cc1F`, 269 to 272 °C.
In the case of `CCCCC(=O)Nc1nc2ccc(Cl)cc2nc1N` it was 224 to 228 °C.
The compound `O=C(CCC(=O)N1CCC(c2ccc(F)cc2)CC1)c1ccc2c(c1)CCNCC2` gave a melting point of 127 to 128 °C.
In the case of `CC=C(c1ccc(OC)cc1)c1ccc(OC)cc1` it was 99 to 100 °C; in that of `O=C(NS(=O)(=O)c1ccccc1)c1cccc2nnsc12`, 173 to 175 °C; in that of `CCOP(=O)(Cc1c2ccccc2cc2ccccc12)OCC`, 104 °C.
Under `O=C(O)c1cc(CCl)ccc1O` stands 144 to 147 °C; under `Cc1cccc(C)c1N(C)C(=O)Cl`, 79 to 80 °C.
In the case of `CCc1cccc(CC)c1N(CCl)C(=O)c1ccccc1` it was 98 to 99 °C; in that of `CC1CC(=O)NN=C1c1ccc(N2CCC(CN)CC2)c([N+](=O)[O-])c1` (centres undefined), 131 to 132 °C.
The compound `CC(=O)Oc1ccc(-c2[nH]c3ccc(Cl)cc3c2-c2ccc(S(C)(=O)=O)cc2)cc1` gave a melting point of 248 to 250 °C.
Under `CC(C)c1cccc(C(C)C)c1NC(=O)NCC1(c2ccc(C(F)(F)F)cc2)CCCC1` stands 196 to 197 °C.
Under `CCOCCc1cc2c(nc(O)n2CCCCS(C)(=O)=O)c(N)n1` stands 203 to 206 °C; under `CCCCCCCCCCCCCCOc1ccc2ccc(=O)oc2c1`, 59 to 60 °C.
Under `COc1cc2ncc(C#N)c(Nc3ccc(F)c(Cl)c3)c2cc1-n1cccc1` stands 192 to 194 °C; under `COC(=O)NC1CCN(c2nc(N3CCOCC3)c3ncnc(N(C)Cc4ccccc4)c3n2)CC1`, 110 °C.
Consider `Nc1nc(N)c(CCCNc2ccc(C(=O)N[C@@H](CCC(=O)O)C(=O)O)cc2)c(=O)[nH]1`, for which the melting point was 195 to 200 °C.
Under `Cc1cccc(C(=O)NC(C)C)c1N` stands 149 to 151 °C; under `CC(C)(C)c1cc(C(=NN)c2ccccc2)cc(C(C)(C)C)c1O`, 97.4 to 117 °C; under `Cc1ccc(S(=O)(=O)N2CCCC2c2ccccc2)cc1` (racemic), 109 °C.
Under `CC(C)(C)C1=NC=C2C=CC(=O)NC3=C2N1CC3` stands 246 to 248 °C.
In the case of `CCCCCCNC(=O)Oc1cccc(NC(=O)CC(C)(OC)OC)c1` it was 110 °C; in that of `CNNc1ncn(-c2ccccc2)c(=O)n1`, 219 °C.
As to `CCc1ccc(CC(C)(C)NC(C)=O)cc1`, the melting point lay in the range of 90 to 92 °C.
The compound `CCCn1c(COCC)nc2c(N)nc3cc(OC4CCNCC4)ccc3c21` showed a melting point of 202 to 204 °C.
`Cc1nnc2n1-c1sc(Cl)cc1C(c1c(F)cccc1F)=NC2` displayed a melting point of 185 to 187 °C.
Under `CC=CCNc1cc(C(=O)O)cc(S(N)(=O)=O)c1-c1ccccc1` stands 186 to 187 °C; under `O=C(c1ccc(Cl)cc1)c1c(Cl)cc(CBr)cc1Cl`, 69 to 73 °C; under `COc1ccc(-c2ccc(C(=O)Nc3ccc4cc(CN5C(C)(C)CCCC5(C)C)ccc4c3)cc2)cc1`, 212 to 214 °C.
For `S=C(Nc1ccccc1Cl)N1CCN(c2cnccn2)CC1`, the melting point lay within 167 to 169 °C.

The record behind these values is a melting point compilation (Tetko et al.; mined from patent text by program, amines drawn as free bases though some values may be those of a salt).
